From patent publication US20220313651A1, “INHIBITORS OF ZIKA VIRUS INFECTION” (priority 2019, published 2022)
Entries after “also recorded” stand apart in the source; their conditions may differ.

Key:
[1] = Safety of ST087010 in pregnant Ifnar1-/- mice and their pups; assay type: in vivo
Method: FIG. 10A depicts weight changes of pregnant mothers at prenatal and postnatal time points and FIG. 10B depicts weight changes of pups at different postnatal time points. Alanine aminotransferase (ALT) (FIG. 10C) and creatinine (FIG. 10D) levels in sera of pregnant mice were measured by ALT assay and Creatinine assay, respectively, before and 4 h, 1, 3 and 5 days post-last injection of ST087010 or DMSO control. Haematoxylin and eosin (H&E) staining of tissues (FIG. 10E), including liver, spleen, kidney, and brain, from ST087010 or DMSO-treated mothers and their pups. Scale bar, 50 μm.
ST087010 was detected for its safety profiles in pregnant Ifnar1^−/− mice and their fetuses. Briefly, groups of 5 pregnant mice (8-12-week-old, E12-14) were i.p. injected with ST087010 (20 or 40 mg/kg of body weight), or DMSO (control), daily for 4 continual days. […] Sera collected before and 4 h, 1, 3 and 5 days after last injection were measured for ALT and creatinine levels using ALT and Creatinine Assay kits. Two mothers and their pups (at 3-week-old) were sacrificed, and their liver, spleen, kidney, and brain tissues were sectioned, and assessed for histopathological changes by H&E staining.

DENV-2 human strain V594 = experiment: DENV-2 infection in Ifnar1-/- mice, viral titers by flow cytometry; assay type: in vivo; settings: 20 mg/kg i.p. 12 h before and 6, 24, 48 h after infection; DENV-2 V594 2×10^6 PFU; 3 dpi; vs gossypol and DMSO
From the text: FIG. 11A is a schematic diagram of experimental procedures. […] FIG. 11B depicts representative images of DENV titers in brain, kidney, heart, and sera analyzed by flow cytometry at 3 dpi. C6/36 cells with or without DENV-2 infection were used as positive and negative controls, respectively. The percentage of infected cells to the total number of cells is shown in each figure. FIG. 11C depicts the detection of DENV titers in challenged mouse tissues and sera at 3 dpi. […] The data are presented as mean±s.e.m of duplicate wells (n=2). The experiments were repeated twice with similar results.
ST087010 was evaluated for protection against DENV-2 infection in susceptible Ifnar1^−/− mice. […] Three days after infection, sera and tissues, including brain, kidney, and heart, were collected, and detected for DENV infection using a flow cytometry assay (as described below). […] DENV titers in tissues or sera were determined from ˜20 mg of tissue, or 25 μl of sera, and used for subsequent flow cytometry analysis.
A flow cytometry assay was carried out to analyze DENV-2 titers in the infected mouse tissue supernatants and sera collected above. […] Viral titers (infectious units/ml or infectious units/g) were calculated using the formula: ((% of infected cells)×(total number of cells)×(dilution factor))/(amount of inoculum added to cells). […]

With Cc1cc2c(C(C)C)c(O)c(O)c(/C=N/n3c(=O)[nH][nH]c3=O)c2c(O)c1-c1c(C)cc2c(C(C)C)c(O)c(O)c(/C=N/n3c(=O)[nH][nH]c3=O)c2c1O [ST087010] the “Serum ALT and creatinine levels vs DMSO-treated mice, low dose” value ([1]; 20 mg/kg) was “no significant difference”, the “Serum ALT and creatinine levels vs DMSO-treated mice, high dose” value ([1]; 40 mg/kg, 1 day after injection, elevations transient) was “significantly different” and the “Histopathology of liver, spleen, kidney and brain, mothers and pups” value ([1]; 20 or 40 mg/kg, vs DMSO) was “no abnormal pathological changes; also recorded: no inflammation or cell infiltration”. The “ALT and creatinine levels in sera, before vs after injection” value ([1]; 20 or 40 mg/kg, before injection and 4 h, 3 or 5 days after last injection) was “no significant differences” and the “DENV-2 viral titer (number of infected cells) in brain, kidney, heart and sera” value (DENV-2 human strain V594) was “significantly reduced number of infected cells”.
